This is an account of results in patent US5679515A, “Mycobacterial reporter strains and uses thereof” (PathoGenesis Corporation, priority 1994, dated 1997).

Converted amounts (≈) assume the structure as drawn. Like-named read-outs stand apart in the source and are kept apart here.

Test [1] concerns Mycobacterium bovis BCG containing pMV361-lux (BCG:361-lux). Put plainly: microbe, parasite or virus in culture. The test is classed as cell-based. The following applies: Mycobacterium tuberculosis variant bovis BCG, 120 h, read-out: MIC BACTEC.
Test [2] has the same test system. Put plainly: microbe, parasite or virus in culture. The test is classed as cell-based. The note with it: for MIC: Mycobacterium tuberculosis variant bovis BCG, BCG.
The test system is the same in test [3]. Description: microbe, parasite or virus in culture. The test is classed as cell-based. The following applies: for MBC: Mycobacterium tuberculosis variant bovis BCG, BCG.
Test [4] has as its system rBCG:pMH30-lux. Also noted: species or system BCG; BALB/C mice. The following applies: mouse, in vivo.
The test system of test [5] is rBCG:pMH30-lux. Also noted: species or system BCG; BALB/C mice. The following applies: mouse, in vivo. This is another data set of the same source.

Turning to `NCC[C@H](O)C(=O)N[C@@H]1C[C@H](N)[C@@H](O[C@H]2O[C@H](CN)[C@@H](O)[C@H](O)[C@H]2O)[C@H](O)[C@H]1O[C@H]1O[C@H](CO)[C@@H](O)[C@H](N)[C@H]1O` [Amikacin, amikacin], the MIC is 0.13 µg/mL (≈ 0.222 µM) in test [1]; more than 2 µg/mL in test [2] (24 h); more than 2 µg/mL in test [2] (48 h); 0.5 µg/mL (≈ 0.854 µM) in test [2] (72 h); 0.25 µg/mL (≈ 0.427 µM) in test [2] (96 h); 0.25 µg/mL (≈ 0.427 µM) in test [2] (120 h). In test [2], the “similarity in BACTEC and BCG:pMV361-lux assays (susceptibility)” value (“similarity” below) is “comparable”. Also, the MBC in test [3] (24 h) was 2 µg/mL (≈ 3.42 µM); in test [3] (48 h), 0.5 µg/mL (≈ 0.854 µM); in test [3] (72 h), 0.5 µg/mL (≈ 0.854 µM); in test [3] (96 h), 0.25 µg/mL (≈ 0.427 µM); in test [3] (120 h), 0.25 µg/mL (≈ 0.427 µM). Moreover, the “lux activity in spleens vs untreated control mice” value with rBCG:pMH30-lux [4] is given as “substantially reduced lux activity”.

As for `O=C(O)c1cn(C2CC2)c2cc(N3CCNCC3)c(F)cc2c1=O` [Ciprofloxacin, ciprofloxacin], the MIC in test [1] was 0.25 µg/mL (≈ 0.754 µM); in test [2] (24 h), more than 2 µg/mL; in test [2] (48 h), more than 2 µg/mL; in test [2] (72 h), 0.5 µg/mL (≈ 1.51 µM); in test [2] (96 h), 0.5 µg/mL (≈ 1.51 µM); in test [2] (120 h) it was 0.5 µg/mL (≈ 1.51 µM). The “similarity” value in test [2] was “comparable”. In addition, the MBC is more than 2 µg/mL in test [3] (24 h), more than 2 µg/mL in test [3] (48 h), 0.5 µg/mL (≈ 1.51 µM) in test [3] (96 h) and 0.5 µg/mL (≈ 1.51 µM) in test [3] (120 h).

For `CC[C@H]1OC(=O)[C@H](C)[C@@H](O[C@H]2C[C@@](C)(OC)[C@@H](O)[C@H](C)O2)[C@H](C)[C@@H](O[C@@H]2O[C@H](C)C[C@H](N(C)C)[C@H]2O)[C@](C)(OC)C[C@@H](C)C(=O)[C@H](C)[C@@H](O)[C@]1(C)O` [Clarithromycin, clarithromycin], the MIC is 0.25 µg/mL (≈ 0.334 µM) in test [1]; more than 0.5 µg/mL in test [2] (24 h); more than 0.5 µg/mL in test [2] (48 h); 0.5 µg/mL (≈ 0.668 µM) in test [2] (72 h); 0.25 µg/mL (≈ 0.334 µM) in test [2] (96 h); 0.25 µg/mL (≈ 0.334 µM) in test [2] (120 h). Besides, the “similarity” value in test [2] is reported as “comparable”. In addition, in test [3], the “MBC value in words” value is on record as “above the highest concentration tested”. Moreover, the MBC in test [3] (24 h), in test [3] (48 h), in test [3] (72 h), in test [3] (96 h) and in test [3] (120 h) was more than 0.5 µg/mL in each case.

With `CC[C@@H](CO)NCCN[C@@H](CC)CO` [Ethambutol, ethambutol], the MIC in test [1] was 2 µg/mL (≈ 9.79 µM); in test [2] (24 h) it was more than 8 µg/mL; in test [2] (48 h) it was more than 8 µg/mL; in test [2] (72 h), more than 8 µg/mL; in test [2] (96 h), 4 µg/mL (≈ 19.6 µM); in test [2] (120 h), 4 µg/mL (≈ 19.6 µM). For the same molecule, the “similarity” value in test [2] is “comparable”. In addition, the MBC in test [3] (24 h) is more than 8 µg/mL; in test [3] (48 h) it was 8 µg/mL (≈ 39.2 µM); in test [3] (72 h), 4 to 8 µg/mL (≈ 19.6 to 39.2 µM); in test [3] (96 h) it was 4 µg/mL (≈ 19.6 µM); in test [3] (120 h) it was 4 µg/mL (≈ 19.6 µM). Also, the “reduced luminescence in spleen vs untreated control” value with rBCG:pMH30-lux [5] is reported as 30%. Also, the “total reduction in luminescence in spleen” value in the test on rBCG:pMH30-lux [5] is 75%. For the same molecule, the “lux activity in spleens” value in the test with rBCG:pMH30-lux [4] is on record as “reduced lux activity”.

For `NNC(=O)c1ccncc1` [Isoniazid, isoniazid], the MIC in test [1] is 0.06 µg/mL (≈ 0.438 µM); in test [2] (24 h) it was more than 0.5 µg/mL; in test [2] (48 h) it was more than 0.5 µg/mL; in test [2] (72 h) it was more than 0.5 µg/mL; in test [2] (96 h), 0.06 µg/mL (≈ 0.438 µM); in test [2] (120 h), 0.06 µg/mL (≈ 0.438 µM). The MBC in test [3] (24 h) is more than 0.5 µg/mL; in test [3] (48 h), 0.13 µg/mL (≈ 0.948 µM); in test [3] (72 h) it was 0.13 µg/mL (≈ 0.948 µM); in test [3] (96 h), 0.13 µg/mL (≈ 0.948 µM); in test [3] (120 h) it was 0.13 µg/mL (≈ 0.948 µM). The “reduced luminescence in spleen vs untreated control” value in the test with rBCG:pMH30-lux [5] is reported as 50%. In addition, the “total reduction in luminescence in spleen” value in the test on rBCG:pMH30-lux [5] is reported as 90%. Moreover, the “lux activity in spleens” value in the test with rBCG:pMH30-lux [4] was “reduced lux activity”.

Take `CC1COc2c(N3CCN(C)CC3)c(F)cc3c(=O)c(C(=O)O)cn1c23` (centres unmarked) [OFX, ofloxacin]: in the test on rBCG:pMH30-lux [4], the “lux activity in spleens vs untreated control mice” value was “substantially reduced lux activity”.

Take `CO[C@H]1/C=C/O[C@@]2(C)Oc3c(C)c(O)c4c(O)c(c(/C=N/N5CCN(C)CC5)c(O)c4c3C2=O)NC(=O)/C(C)=C\C=C\[C@H](C)[C@H](O)[C@@H](C)[C@@H](O)[C@@H](C)[C@H](OC(C)=O)[C@@H]1C` [Rifampin, rifampin]: the MIC in test [1] is 0.03 µg/mL (≈ 0.0365 µM); in test [2] (24 h), more than 0.25 µg/mL; in test [2] (48 h) it was more than 0.25 µg/mL; in test [2] (72 h) it was more than 0.25 µg/mL; in test [2] (96 h), 0.06 µg/mL (≈ 0.0729 µM); in test [2] (120 h) it was 0.06 µg/mL (≈ 0.0729 µM). In addition, the “similarity” value in test [2] is listed as “comparable”. Also, the MBC in test [3] (24 h) is more than 0.25 µg/mL; in test [3] (48 h) it was more than 0.25 µg/mL; in test [3] (72 h) it was more than 0.25 µg/mL; in test [3] (96 h), 0.13 µg/mL (≈ 0.158 µM); in test [3] (120 h) it was 0.13 µg/mL (≈ 0.158 µM). Moreover, the “rBCG-lux luminescence in spleens” value with rBCG:pMH30-lux [4] is given as “reduced rBCG-lux luminescence”.

In the case of `[H]/N=C(/N)N[C@H]1[C@H](O)[C@@H](O)[C@H](O[C@@H]2O[C@@H](C)[C@](O)(C=O)[C@H]2O[C@@H]2O[C@@H](CO)[C@H](O)[C@@H](O)[C@@H]2NC)[C@@H](N/C(N)=N\[H])[C@@H]1O` [Streptomycin, streptomycin], the MIC was 0.25 µg/mL (≈ 0.43 µM) in test [1]; more than 2 µg/mL in test [2] (24 h); 1 µg/mL (≈ 1.72 µM) in test [2] (48 h); 0.5 µg/mL (≈ 0.86 µM) in test [2] (72 h); 0.25 µg/mL (≈ 0.43 µM) in test [2] (96 h); 0.25 µg/mL (≈ 0.43 µM) in test [2] (120 h). Moreover, the “similarity” value in test [2] is given as “comparable”. Besides, the MBC in test [3] (24 h) is more than 2 µg/mL; in test [3] (48 h), 0.5 µg/mL (≈ 0.86 µM); in test [3] (72 h) it was 0.5 µg/mL (≈ 0.86 µM); in test [3] (96 h), 0.25 µg/mL (≈ 0.43 µM); in test [3] (120 h), 0.25 µg/mL (≈ 0.43 µM).
